The record followed here is patent publication US7786299B2, “Methods for treating diseases or conditions using dihydropteridinone compounds” (Boehringer Ingelheim Pharma GmbH & Co. KG, priority 2003, dated 2010).

For orientation: IC50 means the concentration at which inhibition is half-maximal. The low end stands for inhibition by little substance, the high end for a need for much substance.

One assay has as its system HeLaS3 cells. The experiment in a line: Measurement of cytotoxicity on cultivated human tumour cells (AlamarBlue). It counts as cell-based. As to conditions: HeLa in Table 1; unit inferred. A digest of the protocol: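 HeLaS3 cervical cancer cells, 1000 cells/well in Ham's F12 with 10% FCS, exposed 72 h to compound (1% DMSO final) in triplicate. AlamarBlue added for further 7 h, fluorescence at ex 530/em 590 nm; IC50 from activity as percent of untreated control, medium-corrected.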

For the next assay, the system named is H460-VINC. Description: Cytotoxicity on H460-VINC cells (Table 1; method not given). The format is cell-based. As to conditions: H460-VINC of Table 1; unit inferred.

Regarding `COc1cc(C(=O)N[C@H]2CC[C@H](N3CCCC3)CC2)ccc1Nc1ncc2c(n1)N(C1CCCCC1)[C@H](C)C(=O)N2C` [Example 98], the IC50 in the assay on HeLaS3 cells is 77 nM; in the assay on H460-VINC, 1320 nM.
In the same order, the values of `CCC1C(=O)N(C)c2cnc(Nc3ccc(C(=O)NC4CCCN(C)CC4)cc3OC)nc2N1CCC(C)C` (mixture of isomers) [Example 172] are 20 nM and 772 nM.
On the same counts, the results for `COc1cc(C(=O)NC2CCC(N3CCOCC3)CC2)ccc1Nc1ncc2c(n1)N(C(C)C)C(C)C(=O)N2C` (centres unmarked) [Example 26] are 59 nM and 424 nM.
On the same counts, the results for `COc1cc(C(=O)NC2CCC(N3CCCCC3)CC2)ccc1Nc1ncc2c(n1)N(C1CCCCC1)C(C)C(=O)N2C` (centres unmarked) [Example 126] are 51 nM and 742 nM.
As for `CCC1C(=O)N(C)c2cnc(Nc3ccc(C(=O)NC4CCN(C)CC4)cc3)nc2N1C1CCCC1` (centres unmarked) [Example 44], the IC50 with HeLaS3 cells is 9 nM; in the assay with H460-VINC, 204 nM.
In the same order, the values of `CC[C@@H]1C(=O)N(C)c2cnc(Nc3ccc(C(=O)NCCN4CCOCC4)cc3OC)nc2N1C(C)C` [Example 71] are 35 nM and 227 nM.
In the same order, the values of `Cc1cc(C(=O)NC2CCN(C)CC2)ccc1Nc1ncc2c(n1)N(C1CCCCC1)[C@H](C)C(=O)N2C` [Example 94] are 18 nM and 510 nM.
